One block for each compound: values may come before it.
How the values were obtained:
Amaranthus retroflexus = experiment: Pre-emergence herbicidal effect; assay type: in vivo; settings: 3 weeks
From the text: (§1) Seeds of monocotyledonous and dicotyledonous weed plants and crop plants are laid out in wood-fiber pots in sandy loam and covered with soil. The compounds of the invention, formulated in the form of wettable powders (WP) or as emulsion concentrates (EC), are then applied to the surface of the covering soil as aqueous suspension or emulsion at a water application rate equating to 600 to 800 L/ha with addition of 0.2% wetting agent.
(§2) After the treatment, the pots are placed in a greenhouse and kept under good growth conditions for the trial plants. The damage to the trial plants is scored visually after a trial duration of 3 weeks by comparison with untreated controls (herbicidal activity in percent (%): 100% efficacy=the plants have died, 0% efficacy=like control plants).

Viola tricolor = experiment: Pre-emergence herbicidal effect; assay type: in vivo; settings: 3 weeks
From the text: as §1, §2

Echinochloa crus-galli = experiment: Pre-emergence herbicidal effect; assay type: in vivo; settings: 3 weeks
From the text: as §1, §2

Veronica persica = experiment: Pre-emergence herbicidal effect; assay type: in vivo; settings: 3 weeks
From the text: as §1, §2

Stellaria media = experiment: Pre-emergence herbicidal effect; assay type: in vivo; settings: 3 weeks
From the text: as §1, §2

Avena fatua = experiment: Pre-emergence herbicidal effect; assay type: in vivo; settings: 1280 g/ha, 3 weeks
From the text: as §1, §2

Polygonum convolvulus = experiment: Pre-emergence herbicidal effect; assay type: in vivo; settings: 3 weeks
From the text: as §1, §2

Matricaria inodora = experiment: Pre-emergence herbicidal effect; assay type: in vivo; settings: 3 weeks
From the text: as §1, §2

Zea mays [1] = experiment: Pre-emergence herbicidal effect and crop plant compatibility; assay type: in vivo; settings: 3 weeks
From the text: as §1, §2

[2] = test system: Triticum aestivum (spring); experiment: as above; assay type: in vivo; settings: 3 weeks
From the text: as §1, §2

Oryza sativa [3] = experiment: as above; assay type: in vivo; settings: 3 weeks
From the text: as §1, §2

[4] = logp (HCOOH), physicochemical characterization
Zea mays [5] = experiment: Post-emergence herbicidal effect and crop plant compatibility; assay type: in vivo; settings: visual scoring after about 3 weeks
Protocol: (§3) Seeds of monocotyledonous and dicotyledonous weed and crop plants are laid out in sandy loam in wood-fiber pots, covered with soil and cultivated in a greenhouse under good growth conditions. 2 to 3 weeks after sowing, the test plants are treated at the one-leaf stage. The compounds of the invention, formulated in the form of wettable powders (WP) or as emulsion concentrates (EC), are then sprayed onto the green parts of the plants as aqueous suspension or emulsion at a water application rate equating to 600 to 800 L/ha with addition of 0.2% wetting agent. After the trial plants have been left to stand in a greenhouse under optimal growth conditions for about 3 weeks, the efficacy of the formulations is scored visually in comparison to untreated controls (herbicidal action in percent (%): 100% efficacy=the plants have died, 0% efficacy=like control plants).

[6] = test system: Triticum aestivum (spring); experiment: as above; assay type: in vivo; settings: visual scoring after about 3 weeks
Protocol: as §3

Oryza sativa [7] = experiment: as above; assay type: in vivo; settings: visual scoring after about 3 weeks
Protocol: as §3

Setaria viridis = experiment: Pre-emergence herbicidal effect; assay type: in vivo; settings: 320 g/ha, 3 weeks
From the text: as §1, §2

Ipomoea purpurea = experiment: Post-emergence herbicidal effect; assay type: in vivo; settings: 320 g/ha (dose by row order of upper half), scoring after about 3 weeks
Protocol: as §3

Structure (SMILES): CC(=O)c1cnc(N[C@@H]2CCc3c(F)cccc32)nc1 [1.90]
AMARE herbicidal activity in percent (Amaranthus retroflexus; 320 g/ha): 90%
AMARE herbicidal activity in percent (Amaranthus retroflexus; 1280 g/ha): 100%
VIOTR herbicidal activity in percent (Viola tricolor; 1280 g/ha): 100%
ECHCG herbicidal activity in percent (Echinochloa crus-galli; 1280 g/ha): 80%
VERPE herbicidal activity in percent (Veronica persica; 320 g/ha): 100%
VERPE herbicidal activity in percent (Veronica persica; 1280 g/ha): 100%
STEME herbicidal activity in percent (Stellaria media; 320 g/ha): 80%
STEME herbicidal activity in percent (Stellaria media; 1280 g/ha): 100%
AVEFA herbicidal activity in percent (Avena fatua): 100%
POLCO herbicidal activity in percent (Polygonum convolvulus; 1280 g/ha): 90%
MATIN herbicidal activity in percent (Matricaria inodora; 320 g/ha): 100%
MATIN herbicidal activity in percent (Matricaria inodora; 1280 g/ha): 100%
ZEAMX herbicidal activity in percent (Zea mays [1]; 320 g/ha): 20%
ZEAMX herbicidal activity in percent (Zea mays [1]; 1280 g/ha): 20%
TRZAS herbicidal activity in percent ([2]; 320 g/ha): 0%
TRZAS herbicidal activity in percent ([2]; 1280 g/ha): 0%
ORYSA herbicidal activity in percent (Oryza sativa [3]; 320 g/ha): 20%
ORYSA herbicidal activity in percent (Oryza sativa [3]; 1280 g/ha): 20%
logp (HCOOH) [4]: solid; m.p.: 111.5° C.; logp (HCOOH): 2.43; 1H-NMR (CDCl3, 400 MHZ, δ in ppm:

Structure (SMILES): CC(=O)c1cnc(N[C@@H]2CCCc3cc(F)ccc32)nc1C [1.88]
AMARE herbicidal activity in percent (Amaranthus retroflexus; 80 g/ha): 80%
AMARE herbicidal activity in percent (Amaranthus retroflexus; 320 g/ha): 100%
VIOTR herbicidal activity in percent (Viola tricolor; 320 g/ha): 90%
VERPE herbicidal activity in percent (Veronica persica; 80 g/ha): 100%
VERPE herbicidal activity in percent (Veronica persica; 320 g/ha): 100%
STEME herbicidal activity in percent (Stellaria media; 320 g/ha): 100%
MATIN herbicidal activity in percent (Matricaria inodora; 80 g/ha): 100%
MATIN herbicidal activity in percent (Matricaria inodora; 320 g/ha): 100%
ZEAMX herbicidal activity in percent (Zea mays [1]; 80 g/ha): 0%
ZEAMX herbicidal activity in percent (Zea mays [1]; 320 g/ha): 0%
TRZAS herbicidal activity in percent ([2]; 80 g/ha): 0%
TRZAS herbicidal activity in percent ([2]; 320 g/ha): 0%
ORYSA herbicidal activity in percent (Oryza sativa [3]; 80 g/ha): 0%
post-emergence efficacy ZEAMX (Zea mays [5]; 80 g/ha): 0%
post-emergence efficacy ZEAMX (Zea mays [5]; 320 g/ha): 10%
post-emergence efficacy TRZAS ([6]; 80 g/ha): 0%
post-emergence efficacy TRZAS ([6]; 320 g/ha): 20%
post-emergence efficacy ORYSA (Oryza sativa [7]; 80 g/ha): 0%
post-emergence efficacy ORYSA (Oryza sativa [7]; 320 g/ha): 0%

chromatographic logP ([4]; HCOOH (formic acid)): 3.71
Structure (SMILES): CC1(C)CC(=O)c2cnc(N[C@@H]3CCCc4ccccc43)nc2C1 [2.25, 7,7-dimethyl-2-[(1R)-1,2,3,4-tetrahydronaphthalen-1-ylamino]-7,8-dihydroquinazolin-5(6H)-one]
AMARE herbicidal activity in percent (Amaranthus retroflexus; 80 g/ha): 90%
AMARE herbicidal activity in percent (Amaranthus retroflexus; 320 g/ha): 100%
VIOTR herbicidal activity in percent (Viola tricolor; 80 g/ha): 100%
VIOTR herbicidal activity in percent (Viola tricolor; 320 g/ha): 100%
ECHCG herbicidal activity in percent (Echinochloa crus-galli; 320 g/ha): 100%
SETVI herbicidal activity in percent (Setaria viridis): 100%
VERPE herbicidal activity in percent (Veronica persica; 80 g/ha): 100%
VERPE herbicidal activity in percent (Veronica persica; 320 g/ha): 100%
STEME herbicidal activity in percent (Stellaria media; 80 g/ha): 100%
STEME herbicidal activity in percent (Stellaria media; 320 g/ha): 100%
POLCO herbicidal activity in percent (Polygonum convolvulus; 320 g/ha): 100%
MATIN herbicidal activity in percent (Matricaria inodora; 80 g/ha): 90%
MATIN herbicidal activity in percent (Matricaria inodora; 320 g/ha): 100%
ZEAMX herbicidal activity in percent (Zea mays [1]; 80 g/ha): 0%
ZEAMX herbicidal activity in percent (Zea mays [1]; 320 g/ha): 0%
TRZAS herbicidal activity in percent ([2]; 80 g/ha): 0%
ORYSA herbicidal activity in percent (Oryza sativa [3]; 80 g/ha): 0%
ORYSA herbicidal activity in percent (Oryza sativa [3]; 320 g/ha): 0%
post-emergence efficacy ZEAMX (Zea mays [5]; 80 g/ha): 0%
post-emergence efficacy ZEAMX (Zea mays [5]; 320 g/ha): 0%
post-emergence efficacy TRZAS ([6]; 80 g/ha): 10%
post-emergence efficacy TRZAS ([6]; 320 g/ha): 20%
post-emergence efficacy ORYSA (Oryza sativa [7]; 80 g/ha): 0%
post-emergence efficacy ORYSA (Oryza sativa [7]; 320 g/ha): 0%
post-emergence efficacy PHBPU (Ipomoea purpurea): 90%
